According to ChEMBL document CHEMBL1154017, “Functionalization of the A ring of pyridoacridine as a route toward greater structural diversity. Synthesis of an octacyclic analogue of eilatin” (Bioorg Med Chem Lett, 2009):
Calls of active or inactive are those of the source. No cut-off for these calls is given here.

Tests used:
[1] = Solubility in water; type: physicochemical; details: buffer
[2] = Cytostatic activity against human HT29-AK cells; type: functional
[3] = tested on: A-431; test: Cytostatic activity against human A431 cells; type: functional, cell-based
[4] = Partition coefficient, log P of the compound; type: physicochemical; details: octanol/water
[5] = Dissociation constant, pKa at physiological pH; type: physicochemical
[6] = tested on: A-431; test: Cytotoxic activity against human A431 cells assessed as cell survival at 5 uM; type: functional; details: read-out: Activity
[7] = tested on: HT29-AK; test: Cytotoxic activity against human HT29-AK cells assessed as cell survival at 5 uM; type: functional, cell-based

**Q.** With `CCOc1ccc2c3c(nccc13)-c1ccc(N)cc1N2` as the molecule, how does the solubility [1] read?
**A.** The solubility was “Soluble”.

**Q.** What about the IC60 [2] of the same molecule?
**A.** Its IC60 is 1350 nM.

**Q.** What about the IC50 [3] of the same molecule?
**A.** Its IC50 is 2100 nM.

**Q.** And the logP [4]?
**A.** Its logP is 2.62.

**Q.** And the pKa [5]?
**A.** Its pKa is 5.3.

**Q.** With `Clc1ccc2c(c1)Nc1cccc3ccnc-2c13` as the molecule, how does the logP [4] read?
**A.** Its logP is 3.69.

**Q.** And the pKa [5]?
**A.** The pKa was 4.5.

**Q.** Which viability at 5 µM [6] does the source give for `CCOc1ccc2c3c(nccc13)-c1ccc3nc4c5cccnc5c5ncccc5c4nc3c1N2` here?
**A.** The viability at 5 µM was 85%.

**Q.** And the Activity [7]?
**A.** Its Activity is “inactive”.
